Paper PMC10438916 (Results in chemistry, 2022)
Converted amounts (≈) assume the structure as drawn.

Experiments:
[1] = biological target: T1, human sEH (Homo sapiens, UniProt P34913); assay: Determination of inhibitory potency; type: biochemical; conditions: read-out: Human sEH IC50; recombinant affinity purified human sEH, means of three separate experiments
T1 sequence (P34913 1-555): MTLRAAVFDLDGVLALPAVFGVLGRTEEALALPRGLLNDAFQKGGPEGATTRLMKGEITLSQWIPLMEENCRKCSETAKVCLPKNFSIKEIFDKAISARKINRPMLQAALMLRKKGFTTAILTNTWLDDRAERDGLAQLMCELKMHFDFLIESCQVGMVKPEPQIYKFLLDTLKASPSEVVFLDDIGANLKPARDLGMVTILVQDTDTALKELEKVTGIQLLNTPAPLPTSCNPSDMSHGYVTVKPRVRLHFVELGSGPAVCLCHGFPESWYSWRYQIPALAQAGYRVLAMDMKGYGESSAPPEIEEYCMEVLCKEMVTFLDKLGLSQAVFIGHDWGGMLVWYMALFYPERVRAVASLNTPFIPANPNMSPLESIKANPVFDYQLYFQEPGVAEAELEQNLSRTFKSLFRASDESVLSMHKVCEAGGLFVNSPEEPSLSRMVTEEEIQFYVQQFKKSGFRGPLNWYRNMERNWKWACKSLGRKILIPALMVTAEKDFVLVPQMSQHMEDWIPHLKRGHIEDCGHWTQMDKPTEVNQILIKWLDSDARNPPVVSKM

[2] = Solubility by turbidimetric assay in sodium phosphate buffer; type: physicochemical; conditions: sodium phosphate buffer pH 7.4, 0.1 M, 1% DMSO

SMILES | IC50 [1] | Solubility [2]
CC1(C)C2CCC1(C)C(NC(=O)Nc1cccc(F)c1)C2 (racemic) [L/D-3a, rac-1-(3-fluorophenyl)-3-(1,7,7-trimethylbicyclo[2.2.1]heptan-2-yl)urea] | 0.0015 µM | 50 ± 10 µM (≈ 14.5 µg/mL)
CC1(C)C2CCC1(C)C(NC(=O)Nc1ccc(F)cc1)C2 (racemic) [L/D-3b, rac-1-(4-fluorophenyl)-3-(1,7,7-trimethylbicyclo[2.2.1]heptan-2-yl)urea] | 0.0051 µM | 65 ± 15 µM (≈ 18.9 µg/mL)
CC1(C)C2CCC1(C)C(NC(=O)Nc1ccccc1Cl)C2 (racemic) [L/D-3c, rac-1-(2-chlorophenyl)-3-(1,7,7-trimethylbicyclo[2.2.1]heptan-2-yl)urea] | 0.085 µM | 30 ± 10 µM (≈ 9.21 µg/mL)
CC1(C)C2CCC1(C)C(NC(=O)Nc1cccc(Cl)c1)C2 (racemic) [L/D-3d, rac-1-(3-chlorophenyl)-3-(1,7,7-trimethylbicyclo[2.2.1]heptan-2-yl)urea] | 0.0016 µM | 35 ± 15 µM (≈ 10.7 µg/mL)
CC1(C)C2CCC1(C)C(NC(=S)Nc1cccc(F)c1)C2 (racemic) [L/D-3e, rac-1-(3-fluorophenyl)-3-(1,7,7-trimethylbicyclo[2.2.1]heptan-2-yl)thiourea] | 0.126 µM | 10 ± 5 µM (≈ 3.06 µg/mL)
CC1(C)C2CCC1(C)C(NC(=S)Nc1ccc(F)cc1)C2 (racemic) [L/D-3f, rac-1-(4-fluorophenyl)-3-(1,7,7-trimethylbicyclo[2.2.1]heptan-2-yl)thiourea] | 0.0335 µM | 15 ± 5 µM (≈ 4.6 µg/mL)
CC1(C)C2CCC1(C)C(NC(=O)Nc1cccc(F)c1)C2 [Compound D-3a, D-1-(3-fluorophenyl)-3-(1,7,7-trimethylbicyclo[2.2.1]heptan-2-yl)urea] | 0.0028 µM | 50 ± 10 µM (≈ 14.5 µg/mL)
CC1(C)C2CCC1(C)C(NC(=O)Nc1ccc(F)cc1)C2 [Compound D-3b, D-1-(4-fluorophenyl)-3-(1,7,7-trimethylbicyclo[2.2.1]heptan-2-yl)urea] | 0.0082 µM | 65 ± 15 µM (≈ 18.9 µg/mL)
CC1(C)C2CCC1(C)C(NC(=O)Nc1ccccc1Cl)C2 [Compound D-3c, D-1-(2-chlorophenyl)-3-(1,7,7-trimethylbicyclo[2.2.1]heptan-2-yl)urea] | 0.0696 µM | 30 ± 10 µM (≈ 9.21 µg/mL)
CC1(C)C2CCC1(C)C(NC(=O)Nc1cccc(Cl)c1)C2 [Compound D-3d, D-1-(3-chlorophenyl)-3-(1,7,7-trimethylbicyclo[2.2.1]heptan-2-yl)urea] | 0.0017 µM | 35 ± 15 µM (≈ 10.7 µg/mL)
CC1(C)C2CCC1(C)C(NC(=S)Nc1cccc(F)c1)C2 [Compound D-3e, D-1-(3-fluorophenyl)-3-(1,7,7-trimethylbicyclo[2.2.1]heptan-2-yl)thiourea] | 0.176 µM | 10 ± 5 µM (≈ 3.06 µg/mL)
CC1(C)C2CCC1(C)C(NC(=S)Nc1ccc(F)cc1)C2 [Compound D-3f, D-1-(4-fluorophenyl)-3-(1,7,7-trimethylbicyclo[2.2.1]heptan-2-yl)thiourea] | 0.0383 µM | 15 ± 5 µM (≈ 4.6 µg/mL)
CC12CCC(C1)C(C)(C)C2NC(=O)Nc1cccc(F)c1 [Compound D-6a, D-1-(3-fluorophenyl)-3-(1,3,3-trimethylbicyclo[2.2.1]heptan-2-yl)urea] | 0.23 µM | 45 ± 10 µM (≈ 13.1 µg/mL)
CC12CCC(C1)C(C)(C)C2NC(=O)Nc1ccc(F)cc1 [Compound D-6b, D-1-(4-fluorophenyl)-3-(1,3,3-trimethylbicyclo[2.2.1]heptan-2-yl)urea] | 0.367 µM | 65 ± 15 µM (≈ 18.9 µg/mL)
CC12CCC(C1)C(C)(C)C2NC(=O)Nc1ccccc1Cl [Compound D-6c, D-1-(2-chlorophenyl)-3-(1,3,3-trimethylbicyclo[2.2.1]heptan-2-yl)urea] | 4.81 µM | 40 ± 10 µM (≈ 12.3 µg/mL)
CC12CCC(C1)C(C)(C)C2NC(=O)Nc1cccc(Cl)c1 [Compound D-6d, D-1-(3-chlorophenyl)-3-(1,3,3-trimethylbicyclo[2.2.1]heptan-2-yl)urea] | 0.111 µM | 40 ± 10 µM (≈ 12.3 µg/mL)
CC12CCC(C1)C(C)(C)C2NC(=S)Nc1cccc(F)c1 [Compound D-6e, D-1-(3-fluorophenyl)-3-(1,3,3-trimethylbicyclo[2.2.1]heptan-2-yl)thiourea] | 6.48 µM | 10 ± 5 µM (≈ 3.06 µg/mL)
CC12CCC(C1)C(C)(C)C2NC(=S)Nc1ccc(F)cc1 [Compound D-6f, D-1-(4-fluorophenyl)-3-(1,3,3-trimethylbicyclo[2.2.1]heptan-2-yl)thiourea] | 6.08 µM | 15 ± 5 µM (≈ 4.6 µg/mL)
CC1(C)C2CCC1(C)C(NC(=O)Nc1cccc(F)c1)C2 [Compound L-3a, L-1-(3-fluorophenyl)-3-(1,7,7-trimethylbicyclo[2.2.1]heptan-2-yl)urea] | 0.0007 µM | 50 ± 10 µM (≈ 14.5 µg/mL)
CC1(C)C2CCC1(C)C(NC(=O)Nc1ccc(F)cc1)C2 [Compound L-3b, L-1-(4-fluorophenyl)-3-(1,7,7-trimethylbicyclo[2.2.1]heptan-2-yl)urea] | 0.004 µM | 65 ± 15 µM (≈ 18.9 µg/mL)
CC1(C)C2CCC1(C)C(NC(=O)Nc1ccccc1Cl)C2 [Compound L-3c, L-1-(2-chlorophenyl)-3-(1,7,7-trimethylbicyclo[2.2.1]heptan-2-yl)urea] | 0.387 µM | 30 ± 10 µM (≈ 9.21 µg/mL)
CC1(C)C2CCC1(C)C(NC(=O)Nc1cccc(Cl)c1)C2 [Compound L-3d, L-1-(3-chlorophenyl)-3-(1,7,7-trimethylbicyclo[2.2.1]heptan-2-yl)urea] | 0.0015 µM | 35 ± 15 µM (≈ 10.7 µg/mL)
CC1(C)C2CCC1(C)C(NC(=S)Nc1cccc(F)c1)C2 [Compound L-3e, L-1-(3-fluorophenyl)-3-(1,7,7-trimethylbicyclo[2.2.1]heptan-2-yl)thiourea] | 0.0561 µM | 10 ± 5 µM (≈ 3.06 µg/mL)
CC1(C)C2CCC1(C)C(NC(=S)Nc1ccc(F)cc1)C2 [Compound L-3f, L-1-(4-fluorophenyl)-3-(1,7,7-trimethylbicyclo[2.2.1]heptan-2-yl)thiourea] | 0.031 µM | 15 ± 5 µM (≈ 4.6 µg/mL)
CC12CCC(C1)C(C)(C)C2NC(=O)Nc1cccc(F)c1 [Compound L-6a, L-1-(3-fluorophenyl)-3-(1,3,3-trimethylbicyclo[2.2.1]heptan-2-yl)urea] | 0.221 µM | 45 ± 10 µM (≈ 13.1 µg/mL)
CC12CCC(C1)C(C)(C)C2NC(=O)Nc1ccc(F)cc1 [Compound L-6b, L-1-(4-fluorophenyl)-3-(1,3,3-trimethylbicyclo[2.2.1]heptan-2-yl)urea] | 0.412 µM | 65 ± 15 µM (≈ 18.9 µg/mL)
CC12CCC(C1)C(C)(C)C2NC(=O)Nc1ccccc1Cl [Compound L-6c, L-1-(2-chlorophenyl)-3-(1,3,3-trimethylbicyclo[2.2.1]heptan-2-yl)urea] | 1.47 µM | 40 ± 10 µM (≈ 12.3 µg/mL)
CC12CCC(C1)C(C)(C)C2NC(=O)Nc1cccc(Cl)c1 [Compound L-6d, L-1-(3-chlorophenyl)-3-(1,3,3-trimethylbicyclo[2.2.1]heptan-2-yl)urea] | 0.166 µM | 40 ± 10 µM (≈ 12.3 µg/mL)
CC12CCC(C1)C(C)(C)C2NC(=S)Nc1cccc(F)c1 [Compound L-6e, L-1-(3-fluorophenyl)-3-(1,3,3-trimethylbicyclo[2.2.1]heptan-2-yl)thiourea] | 2.98 µM | 10 ± 5 µM (≈ 3.06 µg/mL)
CC12CCC(C1)C(C)(C)C2NC(=S)Nc1ccc(F)cc1 [Compound L-6f, L-1-(4-fluorophenyl)-3-(1,3,3-trimethylbicyclo[2.2.1]heptan-2-yl)thiourea] | 4.23 µM | 15 ± 5 µM (≈ 4.6 µg/mL)
